# Literature values as cited in patent publication US20150164917A1 (VALPHARMA INTERNATIONAL S.P.A., priority 2012, published 2015).
# Tested on: uterine fibrosis
# Details: 5 mg daily oral for 6 months, compared with higher doses
compound,measurement,value
CC#C[C@]1(O)CC[C@H]2[C@@H]3CCC4=CC(=O)CCC4=C3[C@@H](c3ccc(N(C)C)cc3)C[C@@]21C [Mifepristone],effects in the treatment of uterine fibrosis,effects comparable with those of higher doses of Mifepristone
